{"source": "patent US20240201204A1", "about": "“Biomarker and Druggable Target of Neurodegeneration” (University Hospitals Cleveland Medical Center, priority 2020, published 2024)", "key": {"[1]": {"test": "Diflunisal protein binding by rapid equilibrium dialysis", "format": "in vitro ADME, mouse", "conditions": "diluted 1:20 (final) with PBS, 37° C.", "procedure": "(§1) Diflunisal protein binding: Protein binding of diflunisal in mouse plasma or brain homogenate was determined by rapid equilibrium dialysis using RED chambers (Thermo Scientific, Waltham, MA). On the day of the RED experiment, frozen mouse plasma and 4× homogenized brain was thawed in a water bath at 37° C. Then it was equilibrated for 45 minutes at 37° C. in an atmosphere of 5% CO2. The pH of PBS was confirmed within 7.4±0.1. The pH of plasma and brain was measured and adjusted to 7.4±0.1 using concentrated acid or base. Plasma and brain diluted at 1:20 (final) with PBS and used for all subsequent steps. An aliquot of plasma or brain was spiked with compound to a compound concentration of 5 μM and vortex mixed. […] Donor, dialysate, and plasma or brain stability samples were analyzed by using a matrix matching approach whereby each sample was mixed in a 1:1 ratio with the opposite medium (blank matrix or PBS). […] Diflunisal levels in both chambers were measured by LC-MS/MS in comparison to a standard curve prepared in 1:1 matrix: PBS as described above. For each matrix, stability was assessed by maintaining individual aliquots of compound-spiked matrix at 37° C. and 5% CO2 for 0 and 6 hours. […] Stability of diflunisal in plasma and brain was 99% over 6 hours as assessed by LC-MS/MS. Fraction unbound (fu) was determined based on the following equations: […]"}, "[2]": {"conditions": "in vivo", "procedure": "Diflunisal was administered PO and animals were euthanized at the indicated times post-dose. After peripheral blood collection, animals were perfused with 1×PBS to remove blood in the brain vasculature. Total plasma and brain levels of diflunisal were evaluated by LC-MS/MS and then converted to free drug levels after measurement of binding in mouse plasma and brain.\nDiflunisal pharmacokinetics: Diflunisal levels in mouse plasma and brain were monitored by LC-MS/MS using an AB Sciex (Framingham, MA) 4000 QTRAP® mass spectrometer coupled to a Shimadzu (Columbia, MD) Prominence LC. Diflunisal was detected with the mass spectrometer in negative MRM (multiple reaction monitoring) mode by following the precursor to fragment ion transitions 248.9 to 204.9 (quantifier ion) and 248.9 to 184.9 (qualifier ion). An Agilent C18 XDB column (5 micron, 50×4.6 mm) was used for chromatography for PK studies with the following conditions: Buffer A: dH20+0.1% formic acid, Buffer B: acetonitrile+0.1% formic acid, 0-1.0 min 5% B, 1.0-1.5 min gradient to 100% B, 1.5-3.0 min 100% B, 3.0-3.2 min gradient to 5% B, 3.2-4.5 5% B. Tolbutamide (transition 269.1 to 169.9) from Sigma (St. Louis, MO) was used as an internal standard (IS). Pharmacokinetic studies were performed by injecting 8 week old C57BL/6J male mice with diflunisal formulated in 10% DMSO, 20% Kolliphor EL, 70% saline. 60 or 180 minutes post-dose, animals were anesthetized with ketamine (100 mg/kg) and xylazine (10 mg/kg) via intraperitoneal (IP) injection. Blood was collected using the anticoagulant ACD, and then brains were harvested after transcardial perfusion with 1×PBS. Tissues were weighed before snap freezing and blood spun at 9600×g to collect plasma which was stored frozen along with brain tissue at −80° C. until analysis. […] The concentration of drug in each time-point sample was quantified using Analyst software (Sciex). […] The limit of quantitation (LOQ) was defined as the lowest concentration at which back calculation yielded a concentration within 20% of theoretical."}, "[3]": {"test": "Diflunisal stability in plasma and brain homogenate", "format": "in vitro ADME", "conditions": "mouse plasma and brain homogenate, 37° C., 5% CO2, over 6 hours", "procedure": "as §1"}, "p300/CBP": {"tested_on": "p300/CBP", "conditions": "literature (Shirakawa et al., 2016); cited from earlier work"}, "Alzheimer's disease": {"tested_on": "Alzheimer's disease", "test": "Pharmacoepidemiologic cohort analysis (MarketScan Medicare Supplemental database), incidence of AD", "format": "in vivo, human", "from_the_text": "(§2) Because ac-tau has been generally reported in the brains of subjects with AD, we evaluated the relationship between salsalate or diflunisal use and incidence of clinically-diagnosed TBI or AD by analyzing 7.23 million U.S. commercially-insured individuals (MarketScan Medicare Supplemental database). We conducted two cohort analyses to evaluate the predicted association, based on individual level of longitudinal patient data and pharmacoepidemiologic methods, as previously established (Cheng et al., 2018). Thus, our two cohorts included: (1) salsalate vs. a matched aspirin population and (2) diflunisal vs. a matched aspirin population (Table 2). For each comparison, we estimated the un-stratified Kaplan-Meier curves and conducted propensity score (PS) stratified (n strata=10) log-rank tests and a Cox regression model after adjusting age, race, sex, and disease comorbidities (including diabetes, hypertension, and coronary artery disease) using a propensity score-matching method (Methods).\nStudy cohorts. The IBM® MarketScan® Medicare Supplemental Database is one of the first in the U.S. to profile the healthcare experience of retirees with Medicare supplemental insurance paid by employers. The MarketScan Medicare Supplemental Database provides detailed cost, use and outcomes data for healthcare services performed in both inpatient and outpatient settings. For most of the population, the medical claims are linked to outpatient prescription drug claims and person-level enrollment data through the use of unique patient or enrollee identifiers. […] This feature makes the database a robust tool for pharmacoeconomic and outcomes research and helps provide insight into the drug use and spending patterns of older Americans. In this study, the pharmacoepidemiology study utilized the MarketScan Medicare Claims database from 2012 to 2017. The dataset included individual-level diagnosis codes, procedure codes and pharmacy claim data for 7.23 million patients. Pharmacy prescriptions of salsalate, diflunisal, and aspirin were identified by using RxNorm and National Drug Code (NDC).\nOutcome measurement. For a subject, a drug episode is defined as from drug initiation to drug discontinuation. Specifically, drug initiation is defined as the first day of drug supply (i.e. 1st prescription date). Drug discontinuation is defined as the last day of drug supply (i.e. last prescription date+days of supply) and without drug supply for the next 60 days. In another word, gaps of less than 60-day of drug supply were allowed within a drug episode. The drug cohort included the first drug episode for each subject. For the final cohorts, demographic variables including age, race, sex and geographical location were collected. […]"}, "[4]": {"conditions": "500 mg diflunisal twice daily for 11 days; cited from earlier work"}, "clinically-diagnosed TBI": {"tested_on": "clinically-diagnosed TBI", "test": "Pharmacoepidemiologic cohort analysis (MarketScan Medicare Supplemental database), incidence of TBI", "format": "in vivo, human", "conditions": "vs. PS-matched aspirin cohort, Cox regression model, 6 years of follow-up", "from_the_text": "as §2\nStudy cohorts. The IBM® MarketScan® Medicare Supplemental Database is one of the first in the U.S. to profile the healthcare experience of retirees with Medicare supplemental insurance paid by employers. The MarketScan Medicare Supplemental Database provides detailed cost, use and outcomes data for healthcare services performed in both inpatient and outpatient settings. […]"}}, "note": "Where two headings read alike, the source gives them in different places."}
{"smiles": "O=C(O)c1cc(-c2ccc(F)cc2F)ccc1O", "note": "[diflunisal]", "values": [{"measurement": "fraction unbound at 6 h, 5 μM", "setting": "[1]; pH 7.4, mouse brain homogenate, read-out: fraction unbound in brain tissue (fubrain)", "result": "0.05 ± 0.001"}, {"measurement": "fraction unbound at 6 h, 5 μM", "setting": "[1]; pH 7.4, mouse plasma, read-out: fraction unbound in plasma (fuplasma)", "result": "0.014 ± 0.002"}, {"measurement": "penetration into mouse brain", "setting": "[2]", "result": "modest penetration of diflunisal into mouse brain"}, {"measurement": "free drug plasma to brain ratio", "setting": "[2]; male, C57BL/6J, mouse", "result": "55:1"}, {"measurement": "total diflunisal plasma to brain ratio", "setting": "[2]; male, C57BL/6J, mouse", "result": "about 200:1"}, {"measurement": "stability in plasma and brain", "setting": "[3]", "result": 99, "unit": "%"}, {"measurement": "inhibition of p300/CBP", "setting": "p300/CBP", "result": "demonstrated to inhibit p300/CBP"}, {"measurement": "incidence of AD, subgroup analysis", "setting": "Alzheimer's disease; excluding patients with type 2 diabetes, hypertension, or coronary artery disease, vs. aspirin", "result": "associated with decreased incidence of AD"}, {"measurement": "hazard ratio [HR], AD", "setting": "Alzheimer's disease; vs. PS-matched aspirin cohort, Cox regression model, 6 years of follow-up", "result": 0.17}, {"measurement": "mean peak plasma levels in humans", "setting": "[4]", "result": 190, "unit": "µg/mL"}, {"measurement": "hazard ratio [HR], clinically-diagnosed TBI", "setting": "clinically-diagnosed TBI", "result": 0.61}]}
